Laboratory results: patent publication US20100331305A1, “OXO-HETEROCYCLE FUSED PYRIMIDINE COMPOUNDS, COMPOSITIONS AND METHODS OF USE” (Genentech, Inc., priority 2009, published 2010)
Where “and” joins values, the source holds several entries; their conditions need not be identical. Equal values may be shown once.

Experiments:
[1] = molecular target: mTOR enzyme (mTOR(1360-2549)+GBL) (Homo sapiens, UniProt P42345); experiment: In vitro mTOR kinase assay (TR-FRET); assay type: biochemical; details: 0.25 nM mTOR+GBL, 8 uM ATP; values tied to compounds by order of Table 1; 'x or y' = two alternative values for separated diastereomers of unassigned stereochemistry; read-out: activity level (Ki) in the mTOR kinase assay
Description: a. In Vitro mTOR Kinase Assay
The reaction is stopped by an addition of a Terbium-labeled phospho-specific antibody, e.g., Tb-labeled anti-p4E-BP1 T37/T46, (Invitrogen, product #PR8835A), EDTA, and TR-FRET buffer solution (Invitrogen, Product #PR3756B). Product formation is detected by way of time-resolved fluorescence resonance energy transfer (TR-FRET), which occurs when the phosphorylated substrate and labeled antibody are in close proximity due to phospho-specific binding. Enzymatic activity is measured as an increase in TR-FRET signal using a Perkin Elmer Envision plate reader.
Compound activity is tested in 10 point dose curves starting at the highest final concentration of 10 uM. They are serially diluted in 100% DMSO prior to further dilution with assay buffer. […] 8 μL of solution containing 2 nM Tb-anti-p4E-BP1 antibody & 10 mM EDTA diluted TR-FRET buffer is then added and incubated for 30 minutes to stop the reaction. The plate is scanned with the Envision plate reader. Ki values are calculated in Assay Explorer using the Morrison ATP-competitive tight binding equation for Ki apparent determination.

[2] = tested on: PC3 cells; experiment: In vitro cell proliferation assay; assay type: cell-based, human; details: Homo sapiens, PC-3, with PC3 cells; values tied to compounds by order of Table 1
How it was run: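 PC3 (or MDAMB361.1) cells, ~10^3/well, settled overnight, then exposed to compound for 3 days; viability read by CellTiter-Glo luminescence (RLU). Alternatively, 4-day compound exposure followed by Alamar Blue for 6 h, fluorescence 544/590 nm; EC50 from sigmoidal dose-response fit.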

Sequence of mTOR enzyme (mTOR(1360-2549)+GBL) (P42345 1360-2549, species assumed): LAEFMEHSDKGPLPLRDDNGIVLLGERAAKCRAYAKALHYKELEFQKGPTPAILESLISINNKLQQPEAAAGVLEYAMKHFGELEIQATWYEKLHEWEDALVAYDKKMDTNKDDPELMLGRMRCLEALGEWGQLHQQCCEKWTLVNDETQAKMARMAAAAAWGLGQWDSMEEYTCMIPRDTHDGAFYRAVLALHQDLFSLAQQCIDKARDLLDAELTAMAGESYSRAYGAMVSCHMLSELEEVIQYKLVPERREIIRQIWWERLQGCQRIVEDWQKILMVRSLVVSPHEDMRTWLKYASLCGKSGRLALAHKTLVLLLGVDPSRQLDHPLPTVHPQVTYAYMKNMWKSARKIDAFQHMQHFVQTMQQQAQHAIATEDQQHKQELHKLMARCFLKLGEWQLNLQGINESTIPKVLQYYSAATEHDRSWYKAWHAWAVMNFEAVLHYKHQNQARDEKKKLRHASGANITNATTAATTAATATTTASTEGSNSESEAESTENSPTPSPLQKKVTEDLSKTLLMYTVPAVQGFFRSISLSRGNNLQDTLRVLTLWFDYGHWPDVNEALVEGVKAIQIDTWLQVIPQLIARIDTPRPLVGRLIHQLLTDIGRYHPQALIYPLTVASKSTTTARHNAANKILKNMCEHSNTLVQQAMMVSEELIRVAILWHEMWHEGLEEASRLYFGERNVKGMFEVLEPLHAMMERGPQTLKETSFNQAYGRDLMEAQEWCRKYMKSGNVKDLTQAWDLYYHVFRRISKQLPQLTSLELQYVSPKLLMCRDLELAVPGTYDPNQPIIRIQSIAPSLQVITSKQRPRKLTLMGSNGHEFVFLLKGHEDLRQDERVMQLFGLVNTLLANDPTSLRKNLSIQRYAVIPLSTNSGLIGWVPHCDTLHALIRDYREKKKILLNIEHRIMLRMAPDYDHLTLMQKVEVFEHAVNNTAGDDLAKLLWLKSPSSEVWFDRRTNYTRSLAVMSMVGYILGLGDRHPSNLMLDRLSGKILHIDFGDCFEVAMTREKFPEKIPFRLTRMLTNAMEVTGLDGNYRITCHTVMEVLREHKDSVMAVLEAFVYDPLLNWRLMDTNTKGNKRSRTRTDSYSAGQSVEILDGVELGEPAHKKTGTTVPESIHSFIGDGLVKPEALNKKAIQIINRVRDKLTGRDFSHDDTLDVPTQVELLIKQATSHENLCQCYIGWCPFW
Sequence of mTOR enzyme (mTOR(1360-2549)+GBL) (Q9BVC4 whole entry partner, species assumed): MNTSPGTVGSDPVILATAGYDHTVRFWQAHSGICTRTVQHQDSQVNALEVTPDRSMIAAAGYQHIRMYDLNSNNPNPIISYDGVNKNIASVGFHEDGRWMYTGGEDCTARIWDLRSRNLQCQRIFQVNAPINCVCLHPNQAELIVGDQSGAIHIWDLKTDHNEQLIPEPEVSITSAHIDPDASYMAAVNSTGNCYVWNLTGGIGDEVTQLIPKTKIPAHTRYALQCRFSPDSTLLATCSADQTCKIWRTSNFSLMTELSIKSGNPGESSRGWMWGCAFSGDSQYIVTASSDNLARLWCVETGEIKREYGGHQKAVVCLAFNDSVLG

Row | SMILES | Ki [1] | EC50 [2]
1 | O=C(Nc1ccc(-c2nc3c(c(N4[C@@H]5CC[C@H]4COC5)n2)CCC2(CC2)O3)cc1)NC1COC1 [Example 71, 1-(4-(4′-((1R,5S)-3-oxa-8-azabicyclo[3.2.1]octan-8-yl)-5′,6′-dihydrospiro[cyclopropane-1,7′-pyrano[2,3-d]pyrimidine]-2′-yl)phenyl)-3-(oxetan-3-yl)urea] | 2 nM | 479 nM
2 | C[C@H]1COCCN1c1nc(-c2ccc(Nc3cccc(=O)[nH]3)cc2)nc2c1CCC1(CC1)O2 [Example 54, (S)-6-(4-(4′-(3-methylmorpholino)-5′,6′-dihydrospiro[cyclopropane-1,7′-pyrano[2,3-d]pyrimidine]-2′-yl)phenylamino)pyridin-2(1H)-one] | 1 nM | 40 nM
3 | CCNC(=O)Nc1ccc(-c2nc3c(c(N4CCOC[C@@H]4CC)n2)CCCO3)cc1 [Example 2, (S)-1-ethyl-3-(4-(4-(3-ethylmorpholino)-6,7-dihydro-5H-pyrano[2,3-d]pyrimidin-2-yl)phenyl)urea] | 1 nM | 144 nM
4 | O=c1ccnc(Nc2ccc(-c3nc4c(c(N5CCOCC5)n3)CCC3(CC3)O4)cc2)[nH]1 [Example 42, 2-(4-(4′-morpholino-5′,6′-dihydrospiro[cyclopropane-1,7′-pyrano[2,3-d]pyrimidine]-2′-yl)phenylamino)pyrimidin-4(3H)-one] | 1 nM | 56 nM
5 | COCC[C@]1(C)OCc2c(N3CCOC[C@@H]3C)nc(-c3ccc4nc(N)oc4c3)nc21 [Example 112 hg^1] | 255 nM and 410 nM | 671 nM
6 | C[C@H]1COCCN1c1nc(-c2ccc3onc(N)c3c2)nc2c1COC2(C)C [Example 121, (S)-5-(7,7-dimethyl-4-(3-methylmorpholino)-5,7-dihydrofuro[3,4-d]pyrimidin-2-yl)benzo[d]isoxazol-3-amine] | 390 nM | 1300 nM
7 | CCNC(=O)Nc1ccc(-c2nc3c(c(N4CCOC[C@@H]4C)n2)CCC2(CC2)O3)cc1 [Example 49, (S)-1-ethyl-3-(4-(4′-(3-methylmorpholino)-5′,6′-dihydrospiro[cyclopropane-1,7′-pyrano[2,3-d]pyrimidine]-2′-yl)phenyl)urea] | 0.3 nM | 67 nM
8 | Nc1ccc(-c2nc3c(c(N4C[C@H]5CC[C@@H](C4)O5)n2)CCCO3)cn1 [Example 130, 5-(4-((1R,5S)-8-oxa-3-azabicyclo[3.2.1]octan-3-yl)-6,7-dihydro-5H-pyrano[2,3-d]pyrimidin-2-yl)pyridin-2-amine] | 30 nM | 743 nM
9 | CCNC(=O)Nc1ccc(-c2nc(N3CCOC[C@@H]3C)c3c(n2)C(C)(CCn2ccnc2C)OC3)cc1 (single isomer, unassigned) [Example 81 et (S)] | 7 nM | 402 nM
10 | Nc1ccc(-c2nc3c(c(N4[C@@H]5CC[C@H]4COC5)n2)CCCO3)cn1 [Example 132, 5-(4-((1R,5S)-3-oxa-8-azabicyclo[3.2.1]octan-8-yl)-6,7-dihydro-5H-pyrano[2,3-d]pyrimidin-2-yl)pyridin-2-amine] | 32 nM | 585 nM
11 | CNC(=O)Nc1ccc(-c2nc3c(c(N4CCOC[C@@H]4C)n2)CCC2(CC2)O3)cc1 [Example 56, (S)-1-methyl-3-(4-(4′-(3-methylmorpholino)-5′,6′-dihydrospiro[cyclopropane-1,7′-pyrano[2,3-d]pyrimidine]-2′-yl)phenyl)urea] | 1 nM | 37 nM
12 | O=C(NCCO)Nc1ccc(-c2nc3c(c(N4[C@@H]5CC[C@H]4COC5)n2)CCC2(CC2)O3)cc1 [Example 72, 1-(4-(4′-((1R,5S)-3-oxa-8-azabicyclo[3.2.1]octan-8-yl)-5′,6′-dihydrospiro[cyclopropane-1,7′-pyrano[2,3-d]pyrimidine]-2′-yl)phenyl)-3-(2-hydroxyethyl)urea] | 1 nM | 173 nM
13 | C[C@H]1COCCN1c1nc(-c2ccc3c(N)noc3c2)nc2c1COC2(C)C [Example 120, (S)-6-(7,7-dimethyl-4-(3-methylmorpholino)-5,7-dihydrofuro[3,4-d]pyrimidin-2-yl)benzo[d]isoxazol-3-amine] | 24 nM | 39 nM
